One data set relates to Hepatitis C virus. The experiment in a line: Antiviral activity against HCV infected in human Huh7 cells with persistent PFK1389-Luc-Ubi-Neo-NS3-3'/ET replicon after 48 hrs by luminescence based assay. The following applies: Huh-7, 48 h. The class given is functional, organism-based, Hepacivirus hominis. On the technique in general: A replicon is a self-replicating genome or part of one, used to study replication in cells.

Data set [1] relates to Mus musculus. The data set is described as follows: Induction of IFNalpha production in CD1 mouse assessed as concentration of compound required for half-maximal synthesis of INF-alpha at 0.1 to 10 mg/kg, po. The class given is functional. The settings on record: dose mg/kg 0.1-10.
Data set [2] concerns Mus musculus. The data set is described as follows: Volume of distribution in central compartment in CD1 mouse at 0.1 to 10 mg/kg, po. The class given is ADME, organism-based. Set-up: dose 0.1-10 mg/kg, route oral. The following applies: in vivo.
Data set [3] is described as follows: Clearance in CD1 mouse at 0.1 to 10 mg/kg, po. The class given is ADME, organism-based. Set-up: dose 0.1-10 mg/kg, route oral. The settings on record: in vivo.
Data set [4] concerns Mus musculus. The data set is described as follows: Absorption rate constant for depot compartment in CD1 mouse at 0.1 to 10 mg/kg, po. Set-up: dose 0.1-10 mg/kg, route oral. Format: ADME, organism-based. The settings on record: in vivo.
The subject of data set [5] is Mus musculus. The data set is described as follows: Intercompartmental clearance in CD1 mouse at 0.1 to 10 mg/kg, po. Format: ADME, organism-based. Set-up: dose 0.1-10 mg/kg, route oral. The following applies: in vivo.
Data set [6] in a line: Oral bioavailability in rat at 3 mg/kg. The settings on record: in vivo. Format: ADME, organism-based.
The subject of data set [7] is Mus musculus. The data set is described as follows: Apparent volume of distribution in CD1 mouse at 0.1 to 10 mg/kg, po. Format: ADME, organism-based. Set-up: dose 0.1-10 mg/kg, route oral. The settings on record: in vivo.
Data set [8] deals with Mus musculus. The data set is described as follows: Induction of IFNalpha production in CD1 mouse assessed as elimination rate constant for interferon alpha at 0.1 to 10 mg/kg, po. Format: functional. The following applies: dose mg/kg 0.1-10.
Data set [9] relates to Mus musculus. The experiment in a line: Induction of IFNalpha production in CD1 mouse assessed as maximum rate of interferon alpha synthesis at 0.1 to 10 mg/kg, po. Format: functional. The settings on record: dose mg/kg 0.1-10.

For `COCCOc1nc(N)c2[nH]c(=O)n(Cc3ccccc3)c2n1`, the EC50 with Hepatitis C virus came to 30 nM. Also, the SC50 with Mus musculus [1] amounted to 135 ng/mL. Besides, in the data set with Mus musculus [2], the Vd came to 4.31 L/kg. Further, the apparent clearance CL/F in data set [3] was 57.5 mL/min/kg. Besides, the Ka with Mus musculus [4] was 35 h⁻¹. In the data set on Mus musculus [5], this compound gave a CL of 2.78 L/kg/h. Besides, in data set [6], the bioavailability turned out to be 40%. For the same compound, the Vz with Mus musculus [7] was determined as 40 L/kg. In addition, the Activity in the data set with Mus musculus [8] was determined as 0.958 h⁻¹. Further, the Smax in the data set on Mus musculus [9] amounted to 294 IU/ml/hr.

Broadly, the EC50 is the midpoint of the concentration-response curve. What is called CL/F is the apparent clearance, not corrected for the fraction that reaches the circulation. As a reminder, the bioavailability is dose-corrected exposure relative to a reference, in per cent. Lower therefore signals little systemic uptake.
